Laboratory results reported in patent US20120028985A1, “COMBINATIONAL THERAPY FOR TREATING AUTOIMMUNE DISEASE” (4SC AG, priority 2008, published 2012).
Where “and” joins values, the source holds several entries; their conditions need not be identical. Identical values can stand only once.

How the values were obtained:
[1] = Toxicokinetics of formula (II) and methotrexate after individual and concomitant administration to Beagle dogs; assay type: in vivo; settings: for AUC(0-inf) / Cmax / half-life: mean
Beagle dogs [2] = settings: Beagle dogs, 13 weeks oral
Description: The animals were randomly allocated to five test groups employing a pseudo-random body weight stratification procedure that yielded groups with approximately equal mean body weights. […] A special focus of the study was to study the influence of the combination treatment on liver toxicity.

DBA1/J mice = assay: Collagen Induced Arthritis in Mice, Arthritic Index (AI); assay type: in vivo; settings: po once daily, MTX 2.5 mg/kg, Formula (II) 50 mg/kg; for Average Arthritic Index, Mean: group mean
Description: Collagen Induced Arthritis in Mice
Bovine Type II collagen solution is prepared by dissolving at 4 mg/ml in 0.01 M acetic acid at 4-8° C. with stirring overnight. Immunogen is prepared by emulsifying a 1:1 vol:vol combination of collagen solution and Complete Freund's Adjuvant (CFA) (M. tuberculosis H37Ra suspension: 4 mg/ml).
DBA1/J mice (male, 7-8 weeks) are weighed. The animals are anesthetized, injected subcutaneously into the shaved base of the tail with collagen/CFA (0.050 ml/mouse; 100 microgram/mouse collagen in CFA) using a 1 ml syringe fitted with a 25 G needle and returned to the cages.
After three weeks (21 d) the procedure is repeated, though now with incomplete Freund's adjuvant (IFA) instead of CFA.
Animals are observed for one week and macroscopic signs of arthritis are scored 3-times weekly (Monday, Wednesday, Friday: M, W, F). Each paw receives a score: • a) 0=no visible effects of arthritis; • b) 1=edema and/or erythema of 1 digit; • c) 2=edema and/or erythema of 2 digits; • d) 3=edema and/or erythema of more than 2 digits; • e) 4=severe arthritis of entire paw and digits.
Calculate Arthritic Index (AI) by addition of individual paw scores and record. (Maximum AI=16)
After one week, mice are allocated to groups (10 mice per group) to give similar mean AI values and similar ranges of individual AI values in each treatment group.
Dosing is started, PO (per oral) once daily for 14 days.
AI scores determined 3× weekly.

Beagle dogs [3] = assay: 13-week repeat dose toxicity in Beagle dogs, combination with methotrexate: clinical biochemistry (ALAT, ASAT); assay type: in vivo; settings: for ALAT, change as compared to the control group 1 / ASAT, change as compared to the control group 1: 25 mg Formula (II)/kg/day and/or 10/2.5 mg MTX/kg/week, p.o.
Description: For laboratory examinations blood samples were taken from the vena cephalica or vena saphena magna from animals fasted overnight. Serum samples were collected into tubes for biochemical tests. Clinical biochemistry parameters from venous blood were determined at the times listed below:
Prior to study start: all animals of a pool of 52 dogs […]
At the end of the recovery period: all 8 recovery animals included in this study
Clinical biochemistry parameters (e.g. bile acids, alanine aminotransferase=ALAT, alkaline phosphatise=aP, aspartate aminotransferase=ASAT, gamma-glutamyl-transferase=Gamma-GT, glutamate dehydrogenase=GLDH, creatine kinase=CK) were measured using KONELAB 30i instrument (Thermo Fisher Scientific, 63303 Dreieich, Germany) as U/L (unit/liter) serum.

[4] = female, Beagle, dog, plasma, po, 10 mg/kg, Group 4 (+MTX), formula (II) 10 mg/kg, day 1, female Beagle dogs
[5] = female, Beagle, dog, plasma, po, 10 mg/kg, Group 4 (+MTX), formula (II) 10 mg/kg, week 13, female Beagle dogs
[6] = female, Beagle, dog, plasma, po, 25 mg/kg, Group 2, formula (II) 25 mg/kg alone, day 1, female Beagle dogs
[7] = female, Beagle, dog, plasma, po, 25 mg/kg, Group 2, formula (II) 25 mg/kg alone, week 13, female Beagle dogs
[8] = female, Beagle, dog, plasma, po, 25 mg/kg, Group 5 (+MTX), formula (II) 25 mg/kg, day 1, female Beagle dogs
[9] = female, Beagle, dog, plasma, po, 25 mg/kg, Group 5 (+MTX), formula (II) 25 mg/kg, week 13, female Beagle dogs
[10] = male, Beagle, dog, plasma, po, 10 mg/kg, Group 4 (+MTX), formula (II) 10 mg/kg, day 1, male Beagle dogs
[11] = male, Beagle, dog, plasma, po, 10 mg/kg, Group 4 (+MTX), formula (II) 10 mg/kg, week 13, male Beagle dogs
[12] = male, Beagle, dog, plasma, po, 25 mg/kg, Group 2, formula (II) 25 mg/kg alone, day 1, male Beagle dogs
[13] = male, Beagle, dog, plasma, po, 25 mg/kg, Group 2, formula (II) 25 mg/kg alone, week 13, male Beagle dogs
[14] = male, Beagle, dog, plasma, po, 25 mg/kg, Group 5 (+MTX), formula (II) 25 mg/kg, day 1, male Beagle dogs
[15] = male, Beagle, dog, plasma, po, 25 mg/kg, Group 5 (+MTX), formula (II) 25 mg/kg, week 13, male Beagle dogs

COc1cccc(-c2ccc(NC(=O)C3=C(C(=O)O)CCC3)c(F)c2)c1 [Formula (II)]
Toxicokinetic findings (plasma levels, interaction) ([1]; Beagle dogs, test day 1 and 85): clear dose response relationship | AUC(0-t) ([1]; female, Beagle, dog, plasma, po, 10 mg/kg): 598 µg·h/mL | AUC(0-inf) [1, 4]: 513 µg·h/mL | Cmax [1, 4]: 43000 ng/mL | half-life [1, 4]: 7.4 h | Cmax [1, 5]: 40500 ng/mL | half-life [1, 5]: 26.7 h | AUC(0-inf) [1, 6]: 773 µg·h/mL | Cmax [1, 6]: 56300 ng/mL | half-life [1, 6]: 8.6 h | AUC(0-inf) [1, 7]: 1010 µg·h/mL | Cmax [1, 7]: 66600 ng/mL | half-life [1, 7]: 11.1 h | AUC(0-inf) [1, 8]: 413 µg·h/mL | Cmax [1, 8]: 33100 ng/mL | half-life [1, 8]: 7.6 h | AUC(0-inf) [1, 9]: 1190 µg·h/mL | Cmax [1, 9]: 76300 ng/mL | half-life [1, 9]: 8.1 h | AUC(0-inf) [1, 10]: 322 µg·h/mL | Cmax [1, 10]: 30300 ng/mL | half-life [1, 10]: 6.3 h | AUC(0-inf) [1, 11]: 371 µg·h/mL | Cmax [1, 11]: 35700 ng/mL | half-life [1, 11]: 6.3 h | AUC(0-inf) [1, 12]: 289 µg·h/mL | Cmax [1, 12]: 22700 ng/mL | half-life [1, 12]: 7.8 h | AUC(0-inf) [1, 13]: 601 µg·h/mL | Cmax [1, 13]: 56900 ng/mL | half-life [1, 13]: 6.1 h | AUC(0-inf) [1, 14]: 858 µg·h/mL | Cmax [1, 14]: 60000 ng/mL | half-life [1, 14]: 8.4 h | AUC(0-inf) [1, 15]: 659 µg·h/mL | Cmax [1, 15]: 53600 ng/mL | half-life [1, 15]: 7.9 h | Influence on body weight, food and drinking water consumption and haematological parameters (Beagle dogs [2]): no influence | Average Arthritic Index, Mean (DBA1/J mice; study day 22): 0 | Arthritic Index (individual mouse) (DBA1/J mice; study day 22): 0 | Average Arthritic Index, Mean (DBA1/J mice; study day 23): 0 | Arthritic Index (individual mouse) (DBA1/J mice; study day 23): 0 | Average Arthritic Index, Mean (DBA1/J mice; study day 24): 0 | Arthritic Index (individual mouse) (DBA1/J mice; study day 24): 0 | Average Arthritic Index, Mean (DBA1/J mice; study day 25): 0 | Arthritic Index (individual mouse) (DBA1/J mice; study day 25): 0 | Average Arthritic Index, Mean (DBA1/J mice; study day 26): 0 | Arthritic Index (individual mouse) (DBA1/J mice; study day 26): 0 | Average Arthritic Index, Mean (DBA1/J mice; study day 27): 0 | Arthritic Index (individual mouse) (DBA1/J mice; study day 27): 0 | Average Arthritic Index, Mean (DBA1/J mice; study day 28): 0.7 | Arthritic Index (individual mouse) (DBA1/J mice; study day 28): 1 (3×) and 0 (4×) and 2 | Average Arthritic Index, Mean (DBA1/J mice; study day 30): 0.9 | Arthritic Index (individual mouse) (DBA1/J mice; study day 30): 1 (4×) and 0 (3×) and 2 and 3 | Average Arthritic Index, Mean (DBA1/J mice; study day 31): 2.2 | Arthritic Index (individual mouse) (DBA1/J mice; study day 31): 2 (2×) and 3 (3×) and 1 (3×) and 4 | Average Arthritic Index, Mean (DBA1/J mice; study day 32): 3.6 | Average Arthritic Index, Mean (DBA1/J mice; study day 33): 5.2 | Arthritic Index (individual mouse) (DBA1/J mice; study day 33): 6 (2×) and 11 and 2 (2×) and 5 (3×) and 8 | Average Arthritic Index, Mean (DBA1/J mice; study day 35): 5.9 | Arthritic Index (individual mouse) (DBA1/J mice; study day 35): 5 (2×) and 12 and 4 (3×) and 3 and 8 | Average Arthritic Index, Mean (DBA1/J mice; study day 37): 6.9 | Average Arthritic Index, Mean (DBA1/J mice; study day 40): 6.9 | Average Arthritic Index, Mean (DBA1/J mice; study day 42): 7.0 | Average Arthritic Index, Mean (DBA1/J mice; study day 44): 7.1 | Average Arthritic Index, Mean (DBA1/J mice; study day 47): 7.6 | Changes in the biochemical parameters (Beagle dogs [3]; Beagle dogs, 13 weeks oral, serum): slight increased enzyme activities of ALAT, ASAT and GLDH as well as slight increases of the bile acid concentration in serum | ALAT, change as compared to the control group 1 (Beagle dogs [3]; Test day 37, females): None | ASAT, change as compared to the control group 1 (Beagle dogs [3]; Test day 37, females): None | ALAT, change as compared to the control group 1 (Beagle dogs [3]; Test day 37, males): none | ASAT, change as compared to the control group 1 (Beagle dogs [3]; Test day 37, males): none | ALAT, change as compared to the control group 1 (Beagle dogs [3]; Test day 93, females): None | ASAT, change as compared to the control group 1 (Beagle dogs [3]; Test day 93, females): None | ALAT, change as compared to the control group 1 (Beagle dogs [3]; Test day 93, males): None | ASAT, change as compared to the control group 1 (Beagle dogs [3]; Test day 93, males): None
